# Results: patent publication US20230167127A1, “COMPOUNDS AND THEIR USE IN THE TREATMENT OF BACTERIAL INFECTION” (Hoffmann-La Roche Inc., priority 2020, published 2023)
# Like-named read-outs stand apart in the source and are kept apart here.
# Test system: Escherichia coli ATCC 25922
# Assay: 50% growth inhibitory concentration (IC50) determination, Iso-Sensitest broth dilution
# Assay type: cell-based
# Conditions: strain Escherichia coli ATCC 25922, 10-point broth dilution, optical density at 600 nm over 16 h, read-out: Escherichia coli growth inhibition IC50
# How it was run: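 Growth was tracked as optical density at 600 nm every 20 minutes for 16 h at 35±2° C. Compounds from DMSO stocks were serially diluted twofold over 10 points (e.g. 50–0.097 μM final) in Iso-Sensitest broth. Inhibition computed in log-phase growth to give IC50.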
# [1] = Escherichia coli, ATCC25922, 16 h
SMILES,IC50 [1],IC50
"N#Cc1cccc2c1CC(CNCCC1OC(=O)N(c3ccc4c(n3)NC(=O)CO4)C1CN)C2 (racemic) [Example 148, 2-[[2-[rac-4,5-cis-4-(aminomethyl)-2-oxo-3-(3-oxo-4H-pyrido[3,2-b][1,4]oxazin-6-yl)-1,3-oxazolidin-5-yl]ethylamino]methyl]-2,3-dihydro-1H-indene-4-carbonitrile; formic acid]",0.598 µM,–
"COc1cc2c(c(C#N)n1)CC(CNCCC1CN(c3cnc4c(n3)NC(=O)CO4)C(=O)O1)C2 (stereo not shown) [Example 65, 3-methoxy-6-[[2-[2-oxo-3-(3-oxo-4H-pyrazino[2,3-b][1,4]oxazin-6-yl)oxazolidin-5-yl]ethylamino]methyl]-6,7-dihydro-5H-cyclopenta[c]pyridine-1-carbonitrile; formic acid]",< 0.0977 µM,–
"O=C1COc2ncc(N3CC(CCNCC4Cc5ccnc(Cl)c5C4)OC3=O)nc2N1 (stereo not shown) [Example 38, 6-[5-[2-[(1-chloro-6,7-dihydro-5H-cyclopenta[c]pyridin-6-yl)methylamino]ethyl]-2-oxo-1,3-oxazolidin-3-yl]-4H-pyrazino[2,3-b][1,4]oxazin-3-one]",< 0.0977 µM,–
"N#Cc1cc(OCC2CCN2)cc2c1CC(CNCCC1CN(c3ccc4c(n3)NC(=O)CO4)C(=O)O1)C2 (stereo not shown) [Example 187, 6-(azetidin-2-ylmethoxy)-2-[[2-[2-oxo-3-(3-oxo-4H-pyrido[3,2-b][1,4]oxazin-6-yl)-1,3-oxazolidin-5-yl]ethylamino]methyl]-2,3-dihydro-1H-indene-4-carbonitrile]",0.121 µM,–
"Cc1nc(OCC2CC(=O)N(C)C2)c(C)c2c1CC(CNCCC1CN(c3ccc4c(n3)NC(=O)CO4)C(=O)O1)C2 (stereo not shown) [Example 103, 6-[5-[2-[[1,4-dimethyl-3-[(1-methyl-5-oxopyrrolidin-3-yl)methoxy]-6,7-dihydro-5H-cyclopenta[c]pyridin-6-yl]methylamino]ethyl]-2-oxo-1,3-oxazolidin-3-yl]-4H-pyrido[3,2-b][1,4]oxazin-3-one]",1.69 µM,–
"Cc1nc2c(c3c1CC(CNCCC1CN(c4ccc5c(n4)NC(=O)CO5)C(=O)O1)C3)CCN2C (stereo not shown) [Example 416, 6-[5-[2-[(5,8-dimethyl-5,7-diazatricyclo[7.3.0.0^2,6]dodeca-1,6,8-trien-11-yl)methylamino]ethyl]-2-oxo-1,3-oxazolidin-3-yl]-4H-pyrido[3,2-b][1,4]oxazin-3-one]",0.0951 µM,–
"NC1c2cccc(Cl)c2CC1CNCCc1nn(-c2ccc3c(n2)NC(=O)CO3)c(=O)o1 (racemic) [Example 153, 6-[5-[2-[(rac-1,2-trans-1-amino-4-chloro-2,3-dihydro-1H-inden-2-yl)methylamino]ethyl]-2-oxo-1,3,4-oxadiazol-3-yl]-4H-pyrido[3,2-b][1,4]oxazin-3-one]",0.198 µM,–
"Cc1ncc(F)c2c1CC(NCC(O)CC1CN(c3cnc4c(n3)NC(=O)CO4)C(=O)O1)C2 (single isomer, unassigned; isomer c) [Example 315, 6-[2-Oxo-5-[3-[(4-fluoro-1-methyl-6,7-dihydro-5H-cyclopenta[c]pyridin-6-yl)amino]-2-hydroxypropyl]-1,3-oxazolidin-3-yl]-4H-pyrazino[2,3-b][1,4]oxazin-3-one; formic acid, Isomer C]",0.668 µM,–
"NC1c2cccc(Cl)c2CC1CNCCc1nn(-c2cnc3c(n2)NC(=O)CO3)c(=O)o1 (racemic) [Example 337, 6-[2-oxo-5-[2-[[rac-1,2-trans-1-amino-4-chloro-2,3-dihydro-1H-inden-2-yl]methylamino]ethyl]-1,3,4-oxadiazol-3-yl]-4H-pyrazino[2,3-b][1,4]oxazin-3-one; formic acid]",1.08 µM,–
"Cc1ncc(F)c2c1CC(CNCCc1nn(-c3ccc4c(c3)NC(=O)CO4)c(=O)o1)C2 (stereo not shown) [Example 67, 6-[5-[2-[(4-fluoro-1-methyl-6,7-dihydro-5H-cyclopenta[c]pyridin-6-yl)methylamino]ethyl]-2-oxo-1,3,4-oxadiazol-3-yl]-4H-1,4-benzoxazin-3-one]",0.249 µM,–
"Cc1ncc(F)c2c1CC(NC1CC(C3CN(c4cnc5c(n4)NC(=O)CO5)C(=O)O3)C1)C2 (single isomer, unassigned; isomer b) [Example 329, 6-[5-[3-[(4-fluoro-1-methyl-6,7-dihydro-5H-cyclopenta[c]pyridin-6-yl)amino]cyclobutyl]-2-oxo-1,3-oxazolidin-3-yl]-4H-pyrazino[2,3-b][1,4]oxazin-3-one, Isomer B]",–,0.453 µM
"Cc1c(F)cnc2c1CC(CNCCC1CN(c3cnc4c(n3)NC(=O)CO4)C(=O)O1)C2 (stereo not shown) [Example 299, 6-[5-[2-[(3-fluoro-4-methyl-6,7-dihydro-5H-cyclopenta[b]pyridin-6-yl)methylamino]ethyl]-2-oxo-1,3-oxazolidin-3-yl]-4H-pyrazino[2,3-b][1,4]oxazin-3-one]",< 0.0977 µM,–
"Cc1ncc(F)c2c1CC(C(C)NCC[C@H]1CN(c3cnc4c(n3)NC(=O)CO4)C(=O)O1)C2 (stereo partly drawn) [Example 330, 6-[(5S)-5-[2-[1-(4-fluoro-1-methyl-6,7-dihydro-5H-cyclopenta[c]pyridin-6-yl)ethylamino]ethyl]-2-oxo-1,3-oxazolidin-3-yl]-4H-pyrazino[2,3-b][1,4]oxazin-3-one; formic acid]",< 0.0977 µM,–
"CC(N)COc1cc(F)c2c(c1)CC(CCN1CC3(C1)CN(c1cnc4c(n1)NC(=O)CO4)C(=O)O3)C2 (stereo not shown) [Example 327, 6-[2-[2-[6-(2-aminopropoxy)-4-fluoro-2,3-dihydro-1H-inden-2-yl]ethyl]-6-oxo-5-oxa-2,7-diazaspiro[3.4]octan-7-yl]-4H-pyrazino[2,3-b][1,4]oxazin-3-one]",< 0.0977 µM,–
"N#Cc1nccc2c1CC(CN[C@H]1C[C@@]3(CN(c4ccc5c(n4)NC(=O)CO5)C(=O)O3)C1)C2 (stereo partly drawn) [Example 104, 6-[[[2,4-trans-6-oxo-7-(3-oxo-4H-pyrido[3,2-b][1,4]oxazin-6-yl)-5-oxa-7-azaspiro[3.4]octan-2-yl]amino]methyl]-6.7-dihydro-5H-cyclopenta[c]pyridine-1-carbonitrile]",0.0994 µM,–
"Cc1c(OCC2(N)CC2)nc(-c2nccs2)c2c1CC(CNCCC1CN(c3ccc4c(n3)NC(=O)CO4)C(=O)O1)C2 (stereo not shown) [Example 218, 6-[5-[2-[[3-[(1-aminocyclopropyl)methoxy]-4-methyl-1-(1,3-thiazol-2-yl)-6,7-dihydro-5H-cyclopenta[c]pyridin-6-yl]methylamino]ethyl]-2-oxo-1,3-oxazolidin-3-yl]-4H-pyrido[3,2-b][1,4]oxazin-3-one]",< 0.0977 µM,–
"CC(CN)Oc1cc(F)c2c(c1)CC(CNCCC1CN(c3ccc4c(n3)NC(=O)CO4)C(=O)O1)C2 (stereo not shown) [Example 155, 6-[5-[2-[[6-(1-aminopropan-2-yloxy)-4-fluoro-2,3-dihydro-1H-inden-2-yl]methylamino]ethyl]-2-oxo-1,3-oxazolidin-3-yl]-4H-pyrido[3,2-b][1,4]oxazin-3-one; formic acid]",0.364 µM,–
"O=C1COc2ncc(N3CC(CCNCC4Cc5cc(OCC(=O)N6CCC6)cc(F)c5C4)OC3=O)nc2N1 (stereo not shown) [Example 307, 6-[5-[2-[[6-[2-(azetidin-1-yl)-2-oxoethoxy]-4-fluoro-2,3-dihydro-1H-inden-2-yl]methylamino]ethyl]-2-oxo-1,3-oxazolidin-3-yl]-4H-pyrazino[2,3-b][1,4]oxazin-3-one; formic acid]",0.359 µM,–
"NC1c2ccnc(Cl)c2CC1CNCCC1CN(c2ccc3c(n2)NC(=O)CO3)C(=O)O1 (stereo not drawn) [Example 123, 6-[2-oxo-5-[2-[[5,6-trans-5-amino-1-chloro-6,7-dihydro-5H-cyclopenta[c]pyridin-6-yl]methylamino]ethyl]-1,3-oxazolidin-3-yl]-4H-pyrido[3,2-b][1,4]oxazin-3-one; formic acid]",0.248 µM,–
"NC(=O)COc1cc(F)c2c(c1)CC(CNCC[C@@H]1CN(c3cnc4c(n3)NC(=O)CO4)C(=O)O1)C2 (single isomer, unassigned; isomer a) [Example 381]",0.105 µM,–
"CNC(=O)COc1cc(F)c2c(c1)CC(CNCCC1CN(c3ccc4c(n3)NC(=O)CS4)C(=O)O1)C2 (stereo not shown) [Example 74, 2-[[7-fluoro-2-[[2-[2-oxo-3-(3-oxo-4H-pyrido[3,2-b][1,4]thiazin-6-yl)-1,3-oxazolidin-5-yl]ethylamino]methyl]-2,3-dihydro-1H-inden-5-yl]oxy]-N-methylacetamide: formic acid]",0.118 µM,–
"NC1(COc2cc(Cl)c3c(c2)CC(CNCCC2CN(c4ccc5c(n4)NC(=O)CO5)C(=O)O2)C3)CC1 (stereo not shown) [Example 178, 6-[5-[2-[[6-[(1-aminocyclopropyl)methoxy]-4-chloro-2,3-dihydro-1H-inden-2-yl]methylamino]ethyl]-2-oxo-1,3-oxazolidin-3-yl]-4H-pyrido[3,2-b][1,4]oxazin-3-one]",< 0.0977 µM,–
"O=C1COc2ccc(N3CC(CCNCC4Cc5c(Cl)cccc5C4O)OC3=O)nc2N1 (racemic) [Example 231, 6-[2-Oxo-5-[2-[[rac-1,2-cis-4-chloro-1-hydroxy-2,3-dihydro-1H-inden-2-yl]methylamino]ethyl]-1,3-oxazolidin-3-yl]-4H-pyrido[3,2-b][1,4]oxazin-3-one]",–,0.176 µM
"Cc1nc(OC[C@@H]2CCN2)c(C)c2c1CC(CNCCC1CN(c3ccc4c(n3)NC(=O)CO4)C(=O)O1)C2 (stereo partly drawn) [Example 200, 6-[5-[2-[[3-[[(2S)-azetidin-2-yl]methoxy]-1,4-dimethyl-6,7-dihydro-5H-cyclopenta[c]pyridin-6-yl]methylamino]ethyl]-2-oxo-1,3-oxazolidin-3-yl]-4H-pyrido[3,2-b][1,4]oxazin-3-one]",0.32 µM,–
"NC1(CCNCC2Cc3cccc(Cl)c3C2)CC(=O)N(c2ccc3c(n2)NC(=O)CO3)C1 (stereo not shown) [Example 140, 6-[4-amino-4-[2-[(4-chloro-2,3-dihydro-1H-inden-2-yl)methylamino]ethyl]-2-oxopyrrolidin-1-yl]-4H-pyrido[3,2-b][1,4]oxazin-3-one]",0.314 µM,–
